PubChem BioAssay AID330 (DTP/NCI, 2004)
Where “and” joins values, the source holds several entries; their conditions need not be identical. Identical values can stand only once. Inconclusive results and toxic doses are left out.

Test system: P388 leukemia ip, CD2F1 mice, survival T/C
Test: NCI In Vivo Anticancer Drug Screen. Data for tumor model P388 Leukemia (intraperitoneal) in CD2F1 (CDF1) mice
Settings: endpoint: median survival time, higher = longer survival
Method in brief: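 Mice carrying the transplanted tumor received test compound or vehicle. Survival was recorded in each group, and the value is the treated-group measurement divided by that of the vehicle-treated control group.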

[1] = dose: 25.0 mg/kg/injection, schedule: Q01DX009 (ip), vehicle: saline with Tween-80
[2] = dose: 50.0 mg/kg/injection, schedule: Q01DX009 (ip), vehicle: saline with Tween-80
[3] = dose: 100.0 mg/kg/injection, schedule: Q01DX009 (ip), vehicle: saline with Tween-80
[4] = dose: 100.0 mg/kg/injection, schedule: Q01DX009 (ip), vehicle: saline
[5] = dose: 12.5 mg/kg/injection, schedule: Q01DX005 (ip), vehicle: saline with Tween-80
[6] = dose: 100.0 mg/kg/injection, schedule: Q01DX001 (ip), vehicle: saline with Tween-80
[7] = dose: 200.0 mg/kg/injection, schedule: Q01DX001 (ip), vehicle: saline with Tween-80
[8] = dose: 400.0 mg/kg/injection, schedule: Q01DX001 (ip), vehicle: saline with Tween-80
[9] = dose: 50.0 mg/kg/injection, schedule: Q01DX009 (ip), vehicle: saline
[10] = dose: 200.0 mg/kg/injection, schedule: Q01DX009 (ip), vehicle: saline
[11] = dose: 200.0 mg/kg/injection, schedule: Q01DX009 (ip), vehicle: saline with Tween-80
[12] = dose: 50.0 mg/kg/injection, schedule: Q01DX005 (ip), vehicle: saline with Tween-80
[13] = dose: 60.0 mg/kg/injection, schedule: Q01DX005 (ip), vehicle: saline with Tween-80
[14] = dose: 120.0 mg/kg/injection, schedule: Q01DX005 (ip), vehicle: saline with Tween-80
[15] = dose: 240.0 mg/kg/injection, schedule: Q01DX005 (ip), vehicle: saline with Tween-80
[16] = dose: 25.0 mg/kg/injection, schedule: Q01DX005 (ip), vehicle: Klucel (hydroxypropylcellulose) (HPC)

## CCCCCCC1(/C=C/c2ccc(Cl)c(Cl)c2)SCCS1
dose: 12.0 mg/kg/injection, schedule: Q01DX009 (ip), vehicle: saline with Tween-80
  T/C: 100 % of control
dose: 12.5 mg/kg/injection, schedule: Q01DX009 (ip), vehicle: saline
  T/C: 105 % of control
[1]
  T/C: 107 % of control
dose: 25.0 mg/kg/injection, schedule: Q01DX009 (ip), vehicle: saline
  T/C: 102 % of control
[2]
  T/C: 104 % of control
[3]
  T/C: 100 % of control
[4]
  T/C: 102 % of control and 90 % of control

## COc1cc(NC(C)CCCNC(C)C)c2ncccc2c1 (stereo not drawn)
dose: 6.25 mg/kg/injection, schedule: Q01DX005 (ip), vehicle: saline with Tween-80
  T/C: 100 % of control
[5]
  T/C: 100 % of control

## O=S1(=O)C=C(c2ccc3ccccc3c2)C1
[6]
  T/C: 105 % of control
[7]
  T/C: 100 % of control
[8]
  T/C: 96 % of control

## COC1C(O)CC(OC2C(C)OC(Oc3cc(O)c4c(O)c5c(cc4c3)C[C@@H]([C@H](OC)C(=O)[C@@H](O)[C@@H](C)O)[C@H](OC3CC(OC4CC(OC6CC(C)(O)C(O)C(C)O6)C(O)C(C)O4)C(O)C(C)O3)C5=O)CC2OC(C)=O)OC1C (stereo partly drawn)
dose: 37.5 mg/kg/injection, schedule: Q01DX009 (ip), vehicle: saline
  T/C: 107 % of control
dose: 75.0 mg/kg/injection, schedule: Q01DX009 (ip), vehicle: saline
  T/C: 111 % of control
dose: 150.0 mg/kg/injection, schedule: Q01DX009 (ip), vehicle: saline
  T/C: 98 % of control
dose: 300.0 mg/kg/injection, schedule: Q01DX009 (ip), vehicle: saline
  T/C: 107 % of control

## CCO/C=C1\CC(=O)N(c2ccc(F)c(Cl)c2)C1=O
dose: 25.0 mg/kg/injection, schedule: Q01DX001 (ip), vehicle: saline with Tween-80
  T/C: 100 % of control
dose: 50.0 mg/kg/injection, schedule: Q01DX001 (ip), vehicle: saline with Tween-80
  T/C: 100 % of control
[6]
  T/C: 98 % of control and 100 % of control
[7]
  T/C: 109 % of control
[8]
  T/C: 100 % of control

## C=C1C(=O)OC2/C=C(\C)CC/C=C(/C=O)CC(OC(=O)C(C)C)C12 (stereo not drawn)
dose: 5.0 mg/kg/injection, schedule: Q01DX009 (ip), vehicle: other
  T/C: 100 % of control
dose: 10.0 mg/kg/injection, schedule: Q01DX009 (ip), vehicle: other
  T/C: 91 % of control
dose: 20.0 mg/kg/injection, schedule: Q01DX009 (ip), vehicle: other
  T/C: 112 % of control

## CCC1(O)CCC2C3CC=C4CCCCC4C3CCC21C (stereo not drawn)
[9]
  T/C: 107 % of control
[4]
  T/C: 100 % of control
[10]
  T/C: 100 % of control

## CS(=O)(=O)OCC(=O)NCC(O)CNC(=O)COS(C)(=O)=O
[11]
  T/C: 175 % of control
dose: 200.0 mg/kg/injection, schedule: Q04DX003 (ip), vehicle: saline with Tween-80
  T/C: 181 % of control
dose: 400.0 mg/kg/injection, schedule: Q04DX003 (ip), vehicle: saline with Tween-80
  T/C: 162 % of control and 181 % of control

## COc1ccc(CCNC(=O)CCN2C(=O)CCC2=O)cc1OC
dose: 100.0 mg/kg/injection, schedule: Q01DX009 (ip), vehicle: saline sonified
  T/C: 105 % of control
dose: 200.0 mg/kg/injection, schedule: Q01DX009 (ip), vehicle: saline sonified
  T/C: 105 % of control
dose: 400.0 mg/kg/injection, schedule: Q01DX009 (ip), vehicle: saline sonified
  T/C: 110 % of control

## CNc1nc(C)nc(NC)n1
dose: 50.0 mg/kg/injection, schedule: Q01DX009 (ip), vehicle: Klucel (hydroxypropylcellulose) (HPC)
  T/C: 91 % of control
dose: 100.0 mg/kg/injection, schedule: Q01DX009 (ip), vehicle: Klucel (hydroxypropylcellulose) (HPC)
  T/C: 93 % of control
dose: 200.0 mg/kg/injection, schedule: Q01DX009 (ip), vehicle: Klucel (hydroxypropylcellulose) (HPC)
  T/C: 90 % of control

## O=C(O)CC(=O)O.[NH-]C1CCCC1[NH-].[Pt+2]
dose: 6.25 mg/kg/injection, schedule: Q04DX002 (ip), vehicle: saline
  T/C: 114 % of control
dose: 50.0 mg/kg/injection, schedule: Q04DX002 (ip), vehicle: saline with Tween-80
  T/C: 169 % of control
dose: 100.0 mg/kg/injection, schedule: Q04DX002 (ip), vehicle: saline with Tween-80
  T/C: 185 % of control
dose: 200.0 mg/kg/injection, schedule: Q04DX002 (ip), vehicle: saline with Tween-80
  T/C: 197 % of control

## CCOC(=O)CC(C)P(c1ccccc1)C(C)CC(=O)OCC (stereo not drawn)
[12]
  T/C: 105 % of control
[13]
  T/C: 98 % of control
dose: 100.0 mg/kg/injection, schedule: Q01DX005 (ip), vehicle: saline with Tween-80
  T/C: 99 % of control
[14]
  T/C: 101 % of control
dose: 200.0 mg/kg/injection, schedule: Q01DX005 (ip), vehicle: saline with Tween-80
  T/C: 102 % of control
[15]
  T/C: 105 % of control

## C=C(C)CC1C(=O)OC(=O)C1(CC(=C)C)CC(=C)C (stereo not drawn)
[9]
  T/C: 100 % of control
[4]
  T/C: 99 % of control
[10]
  T/C: 93 % of control

## CC(=O)c1c(Br)c2c3ccccc3c3ccccc3n2c1C
[13]
  T/C: 107 % of control
[14]
  T/C: 106 % of control
[15]
  T/C: 92 % of control

## C=C1CCOC2(C(O)C(C)(O)CO)NC(=O)C1(O)NC2=O (stereo not drawn)
[9]
  T/C: 108 % of control
[4]
  T/C: 118 % of control
[10]
  T/C: 103 % of control
dose: 400.0 mg/kg/injection, schedule: Q01DX009 (ip), vehicle: saline
  T/C: 108 % of control

## CCOc1cc(/C=C2\SC(=O)N(CC)C2=O)ccc1O
[2]
  T/C: 108 % of control
[3]
  T/C: 109 % of control
[11]
  T/C: 90 % of control

## CSC(SC)(SC)C(=O)N(C)C
[1]
  T/C: 95 % of control
[2]
  T/C: 93 % of control
[3]
  T/C: 96 % of control

## CC(=O)c1c(OCC(O)CN2CCN(C)CC2)cccc1OCC(O)CN1CCN(C)CC1 (stereo not drawn)
dose: 6.25 mg/kg/injection, schedule: Q01DX005 (ip), vehicle: saline
  T/C: 105 % of control
dose: 12.5 mg/kg/injection, schedule: Q01DX005 (ip), vehicle: saline
  T/C: 101 % of control
dose: 25.0 mg/kg/injection, schedule: Q01DX005 (ip), vehicle: saline
  T/C: 105 % of control

## OCCNc1ncnc2cc(Cl)ccc12
[16]
  T/C: 98 % of control
dose: 50.0 mg/kg/injection, schedule: Q01DX005 (ip), vehicle: Klucel (hydroxypropylcellulose) (HPC)
  T/C: 95 % of control
dose: 100.0 mg/kg/injection, schedule: Q01DX005 (ip), vehicle: Klucel (hydroxypropylcellulose) (HPC)
  T/C: 105 % of control
dose: 200.0 mg/kg/injection, schedule: Q01DX005 (ip), vehicle: Klucel (hydroxypropylcellulose) (HPC)
  T/C: 98 % of control

## C/C(=N\NC(=O)c1ccncc1)c1cccc(/C(C)=N/NC(=O)c2ccncc2)n1.CC(=O)[O-].CC(=O)[O-].[Zn+2]
[5]
  T/C: 110 % of control
dose: 25.0 mg/kg/injection, schedule: Q01DX005 (ip), vehicle: saline with Tween-80
  T/C: 104 % of control
[12]
  T/C: 88 % of control and 93 % of control

## CC1C(=O)C(C)C(c2ccc(Cl)cc2)OC1c1ccccc1 (stereo not drawn)
dose: 50.0 mg/kg/injection, schedule: Q01DX001 (ip), vehicle: Klucel (hydroxypropylcellulose) (HPC)
  T/C: 94 % of control
dose: 100.0 mg/kg/injection, schedule: Q01DX001 (ip), vehicle: Klucel (hydroxypropylcellulose) (HPC)
  T/C: 95 % of control
dose: 200.0 mg/kg/injection, schedule: Q01DX001 (ip), vehicle: Klucel (hydroxypropylcellulose) (HPC)
  T/C: 105 % of control

## Cc1cc2c(-c3ccccc3)c3cc(C)c(N)cc3nc2cc1N
dose: 6.25 mg/kg/injection, schedule: Q01DX005 (ip), vehicle: Klucel (hydroxypropylcellulose) (HPC)
  T/C: 101 % of control
dose: 12.5 mg/kg/injection, schedule: Q01DX005 (ip), vehicle: Klucel (hydroxypropylcellulose) (HPC)
  T/C: 100 % of control
[16]
  T/C: 99 % of control

## O=S(=O)(OC(F)(F)F)C(F)(F)F
dose: 24.5 mg/kg/injection, schedule: Q01DX001 (ip), vehicle: Klucel (hydroxypropylcellulose) (HPC)
  T/C: 97 % of control
dose: 49.0 mg/kg/injection, schedule: Q01DX001 (ip), vehicle: Klucel (hydroxypropylcellulose) (HPC)
  T/C: 94 % of control
dose: 98.0 mg/kg/injection, schedule: Q01DX001 (ip), vehicle: Klucel (hydroxypropylcellulose) (HPC)
  T/C: 94 % of control

## COC(=O)c1ccccc1NC(Cc1ccccc1)=NC(C)(C)C
[2]
  T/C: 86 % of control
[3]
  T/C: 99 % of control

## Nc1n[nH]c(-c2ccccc2)n1
[2]
  T/C: 117 % of control
[3]
  T/C: 101 % of control

## COc1ccc(C(NC(N)=O)c2cc3c(cc2OC(C)=O)OCO3)cc1 (stereo not drawn)
dose: 60.0 mg/kg/injection, schedule: Q01DX005 (ip), vehicle: Klucel (hydroxypropylcellulose) (HPC)
  T/C: 98 % of control
dose: 120.0 mg/kg/injection, schedule: Q01DX005 (ip), vehicle: Klucel (hydroxypropylcellulose) (HPC)
  T/C: 92 % of control
dose: 240.0 mg/kg/injection, schedule: Q01DX005 (ip), vehicle: Klucel (hydroxypropylcellulose) (HPC)
  T/C: 93 % of control
